Data as given in US6492167B2, “Ubiquitous potassium-channel proteins and their genes” (JCR Pharmaceuticals Co., Ltd., priority 1995, dated 2002).
Blank lines part the entries; values can stand above or below the compound they belong to.

Key:
ruKATP-1 [1] = biological target: T1, ruKATP-1 (Rattus norvegicus, UniProt Q63664); assay: Single-channel analysis of HEK 239 cells having ruKATP-1 expressed (inside-out mode); type: cell-based; conditions: for uKATP-1 channel activity (state of channel): inside-out mode
T1 construct: The expression plasmid (pCMV6b) carrying a full-length ruKATP-1 coding cDNA was transfected into HEK 239 cells; expressed in transfected cells; host or cells: HEK 239 (sic) cells, plasmid pCMV6b, Lipofectamine
T1 sequence (Q63664 1-424): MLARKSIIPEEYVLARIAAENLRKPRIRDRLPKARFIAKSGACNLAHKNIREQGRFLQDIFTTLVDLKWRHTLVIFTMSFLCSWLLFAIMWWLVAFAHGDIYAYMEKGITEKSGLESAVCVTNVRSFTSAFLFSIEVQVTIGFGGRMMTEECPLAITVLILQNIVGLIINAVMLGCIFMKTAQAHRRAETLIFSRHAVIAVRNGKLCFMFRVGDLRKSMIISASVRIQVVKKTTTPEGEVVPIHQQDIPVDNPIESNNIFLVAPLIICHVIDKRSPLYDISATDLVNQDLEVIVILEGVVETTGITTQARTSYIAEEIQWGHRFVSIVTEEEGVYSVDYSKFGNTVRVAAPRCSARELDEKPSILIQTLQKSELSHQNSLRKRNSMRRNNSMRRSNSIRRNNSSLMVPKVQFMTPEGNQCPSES
Procedure: […] cells were cultured in minimum essential Eagle's medium supplemented with 10% of horse serum. The expression plasmid (pCMV6b) carrying a full-length ruKATP-1 coding cDNA was transfected into […] cells with use of Lipofectamine to prepare transformed HEK 293 cells. The transformed cells produced in this. manner were subjected to single channel analysis, with the results being shown in FIGS. 8A and 8B.
FIG. 7 illustrates effects of ATP on the uKATP-1 channel activity as observed in the inside-out mode.

ruKATP-1 [2] = biological target: T1, ruKATP-1; assay: Electrophysiological analysis of Xenopus oocytes injected with ruKATP-1 cRNA; type: cell-based
Procedure: A 20 ng quantity of cRNA synthesized in vitro from plasmid pGEM11Z containing a full-length ruKATP-1 cDNA with the RNA polymerase after being linearized through treatment with a restriction enzyme Not1 was injected into Xenopus oocytes, followed by electrophysiological analysis 2 or 3 days later. (see FIG. 7). As is illustrated in FIGS. 7A and 7B, there was observed a K^+ electric current showing weak inward rectification. The K^+ electric current was suppressed by adding Ba^2+ in the exracellular fluid.

outward electric current flowing through the channel (ruKATP-1 [1]; intracellular Mg2+, transformed HEK cells): suppressed
SMILES: [Mg+2] [Mg^2+]

SMILES: [Ba+2] [Ba^2+]
inward rectification (inward current) of oocytes injected with ruKATP-1 cRNA (ruKATP-1 [2]; 300 μM Ba2+ added to the extracellular fluid, 45 mM [K+] extracellular fluid): blocked
K+ electric current showing weak inward rectification (ruKATP-1 [2]; Ba2+ added in the extracellular fluid, concentration not given): suppressed

uKATP-1 channel activity (state of channel) (ruKATP-1 [1]; 1 μM of ATP added inside the cellular membrane): open
uKATP-1 channel activity (state of channel) (ruKATP-1 [1]; addition of ATP): closed completely
SMILES: Nc1ncnc2c1ncn2[C@@H]1O[C@H](COP(=O)(O)OP(=O)(O)OP(=O)(O)O)[C@@H](O)[C@H]1O [ATP]
